Results reported in patent publication US10995071B2, “Method for producing a polymorphic form of 3-[5-amino-4-(3-cyanobenzoyl)-pyrazol-1-yl]-N-cyclopropyl-4-methylbenzamide” (MEREO BIOPHARMA 1 LIMITED, priority 2016, dated 2021).

Tests used:
Assay type in all cases: physicochemical
[1] = Variable temperature XRPD study
Protocol: The sample was placed in Anton-Paar TTK 450 chamber at 25° C. The temperature was controlled in-situ through the measurement files: p2853-vt, LRP-1301-39-01.dql, LRP-1301-42-01.dql, LRP-1301-42-02.dql. The sample was heated from 25° C. to 200° C. at 1° C./min. XRPD data were collected from 30° C. to 200° C. every 10° C. Approximately 40 mg of the sample was placed in a Ni-coated sample holder under ambient conditions. The sample was loaded at 25° C.
At 200° C., changes (shifts) in peak position in the high 2-theta region were observed. This may be attributed to the thermal expansion effect.

[2] = Hygroscopicity of the polymorphic form; details: crystalline anhydrous form
[3] = Dissolution rate comparison of Form A and Form B in size 1 capsules (FIG. 8); details: 50 mg drug substance/capsule, milled to D50 1-10 μm, compared with Form A
Excerpt: The products is milled to D50 1-10 μm.

[4] = Solubility profile of the polymorphic form
[5] = Thermodynamic stability of the polymorphic form

temperature of conversion to Form B on heating ([1]; heated from 25° C. to 200° C. at 1° C./min)	form by XRPD after heating to 200° C. and cooling to room temperature ([1]; cooled to room temperature (20° C.))	hygroscopicity [2]	dissolution rate [3]	solubility profile [4]	thermodynamic stability [5]	SMILES
above 100 °C	–	–	–	–	–	Cc1ccc(C(=O)NC2CC2)cc1-n1ncc(C(=O)c2cccc(C#N)c2)c1N [Form A, 3-[5-amino-4-(3-cyanobenzoyl)-pyrazol-1-yl]-N-cyclopropyl-4-methylbenzamide]
–	remained unchanged	non-hygroscopic	higher dissolution rate than Form A	favourable solubility profile	thermodynamically stable	Cc1ccc(C(=O)NC2CC2)cc1-n1ncc(C(=O)c2cccc(C#N)c2)c1N [Form B, 3-[5-amino-4-(3-cyanobenzoyl)-pyrazol-1-yl]-N-cyclopropyl-4-methylbenzamide]
